Biological target: Recombinant human factor D (Homo sapiens (Human), UniProt P00746)
Test: Human Complement Factor D Assay: Method 1
Type: biochemical
Details: 10 nM recombinant human factor D, substrate Z-Lys-thiobenzyl, fluorescence readout, read-out: IC50 Factor D inhibition
Protocol: Human Complement Factor D Assay: Method 1
Recombinant human factor D (expressed in E. coli and purified using standard methods) at 10 nM concentration is incubated with test compound at various concentrations for 1 hour at room temperature in 0.1 M Hepes buffer, pH 7.5, containing 1 mM MgCl2, 1 M NaCl and 0.05% CHAPS. A synthetic substrate Z-Lys-thiobenzyl and 2,4-dinitrobenzenesulfonyl-fluoresceine are added to final concentrations of 200 μM and 25 μM, respectively. The increase in fluorescence is recorded at excitation of 485 nm and emission at 535 nm in a microplate spectrofluorimeter. IC50 values are calculated from percentage of inhibition of complement factor D-activity as a function of test compound concentration.
Factor D Inhibition Data Using Method 1 to Determine the IC50s.

Recombinant human factor D, sequence (P00746 26-253): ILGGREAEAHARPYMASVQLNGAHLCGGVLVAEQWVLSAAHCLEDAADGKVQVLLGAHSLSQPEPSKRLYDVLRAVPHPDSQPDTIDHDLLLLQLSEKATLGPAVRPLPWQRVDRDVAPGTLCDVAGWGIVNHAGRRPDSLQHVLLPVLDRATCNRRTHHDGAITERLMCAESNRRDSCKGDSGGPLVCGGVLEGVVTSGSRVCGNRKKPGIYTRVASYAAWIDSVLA

SMILES | IC50
CC(=O)c1nn(CC(=O)N2[C@@H]3C[C@@H]3C[C@H]2C(=O)NCC(F)=C(C)C)c2ccccc12 [Example 11, (1R,3S,5R)-2-[2-(3-Acetyl-indazol-1-yl)-acetyl]-2-aza-bicyclo[3.1.0]hexane-3-carboxylic acid (2-fluoro-3-methyl-but-2-enyl)-amide] | 19 nM
CC(C)=C(F)CNC(=O)[C@@H]1C[C@H]2C[C@H]2N1C(=O)Cn1nc(C(N)=O)c2cc(C)nc(C)c21 [Example 9, 1-{2-[(1R,3S,5R)-3-(2-Fluoro-3-methyl-but-2-enylcarbamoyl)-2-aza-bicyclo[3.1.0]hex-2-yl]-2-oxo-ethyl}-5,7-dimethyl-1H-pyrazolo[3,4-c]pyridine-3-carboxylic acid amide] | 356 nM
CC(C)=C(F)CNC(=O)[C@@H]1C[C@@]2(CO)C[C@H]2N1C(=O)Cn1nc(C(N)=O)c2ccccc21 [Example 6, 1-{2-[(1R,3S,5S)-3-(2-Fluoro-3-methyl-but-2-enylcarbamoyl)-5-hydroxymethyl-2-aza-bicyclo[3.1.0]hex-2-yl]-2-oxo-ethyl}-1H-indazole-3-carboxylic acid amide] | 99 nM
NC(=O)c1nn(CC(=O)N2[C@@H]3C[C@@H]3C[C@H]2C(=O)NC/C(F)=C/C(F)(F)F)c2ccccc12 [Example 20, 1-(2-oxo-2-((1R,3S,5R)-3-(((Z)-2,4,4,4-tetrafluorobut-2-en-1-yl)carbamoyl)-2-azabicyclo[3.1.0]hexan-2-yl)ethyl)-1H-indazole-3-carboxamide] | 90 nM
CC(C)=C(F)C(C)NC(=O)[C@@H]1C[C@H]2C[C@H]2N1C(=O)Cn1nc(C(N)=O)c2ccccc21 (stereo partly drawn) [Example 19, 1-{2-[(1R,3S,5R)-3-(2-Fluoro-1,3-dimethyl-but-2-enylcarbamoyl)-2-aza-bicyclo[3.1.0]hex-2-yl]-2-oxo-ethyl}-1H-indazole-3-carboxylic acid amide] | 7 nM
CC(C)=C(F)CNC(=O)[C@@H]1C[C@H]2C[C@H]2N1C(=O)Cn1nc(C(N)=O)c2cc(C)ncc21 [Example 12, 1-{2-[(1R,3S,5R)-3-(2-Fluoro-3-methyl-but-2-enylcarbamoyl)-2-aza-bicyclo[3.1.0]hex-2-yl]-2-oxo-ethyl}-5-methyl-1H-pyrazolo[3,4-c]pyridine-3-carboxylic acid amide] | 74 nM
CC(C)=C(F)CNC(=O)[C@@H]1C[C@H]2C[C@H]2N1C(=O)Cn1nc(C(N)=O)c2ccc(C)cc21 [Example 4, 1-{2-[(1R,3S,5R)-3-(2-Fluoro-3-methyl-but-2-enylcarbamoyl)-2-aza-bicyclo[3.1.0]hex-2-yl]-2-oxo-ethyl}-6-methyl-1H-indazole-3-carboxylic acid amide] | 450 nM
CC(C)=C(F)CNC(=O)[C@@H]1C[C@H]2C[C@H]2N1C(=O)Cn1nc(C(N)=O)c2ccnc(C)c21 [Example 14, 1-{2-[(1R,3S,5R)-3-(2-Fluoro-3-methyl-but-2-enylcarbamoyl)-2-aza-bicyclo[3.1.0]hex-2-yl]-2-oxo-ethyl}-7-methyl-1H-pyrazolo[3,4-c]pyridine-3-carboxylic acid amide] | 63 nM
CCc1cc2c(C(N)=O)nn(CC(=O)N3[C@@H]4C[C@@H]4C[C@H]3C(=O)NCC(F)=C(C)C)c2cn1 [Example 15, 5-Ethyl-1-{2-[(1R,3S,5R)-3-(2-fluoro-3-methyl-but-2-enylcarbamoyl)-2-aza-bicyclo[3.1.0]hex-2-yl]-2-oxo-ethyl}-1H-pyrazolo[3,4-c]pyridine-3-carboxylic acid amide] | 43 nM
CC(C)=C(F)[C@@H](C)NC(=O)[C@@H]1C[C@H]2C[C@H]2N1C(=O)Cn1nc(C(N)=O)c2ccccc21 [Example 22, 1-(2-((1R,3S,5R)-3-((R)-3-fluoro-4-methylpent-3-en-2-ylcarbamoyl)-2-azabicyclo[3.1.0]hexan-2-yl)-2-oxoethyl)-1H-indazole-3-carboxamide] | 6 nM
CC(=O)c1nn(CC(=O)N2[C@@H]3C[C@@H]3C[C@H]2C(=O)NCC(F)=C(C)C)c2ccc(OCc3ncccn3)cc12 [Example 16, (1R,3S,5R)-2-{2-[3-Acetyl-5-(pyrimidin-2-ylmethoxy)-indazol-1-yl]-acetyl}-2-aza-bicyclo[3.1.0]hexane-3-carboxylic acid (2-fluoro-3-methyl-but-2-enyl)-amide] | 7 nM
CC(=O)c1nn(CC(=O)N2[C@@H]3C[C@@H]3C[C@H]2C(=O)NCC(F)=C(C)C)c2cnccc12 [Example 13, (1R,3S,5R)-2-[2-(3-Acetyl-pyrazolo[3,4-c]pyridin-1-yl)-acetyl]-2-aza-bicyclo[3.1.0]hexane-3-carboxylic acid (2-fluoro-3-methyl-but-2-enyl)-amide] | 37 nM
[2H]C([2H])([2H])C(=C(F)CNC(=O)[C@@H]1C[C@H]2C[C@H]2N1C(=O)Cn1nc(C(N)=O)c2ccccc21)C([2H])([2H])[2H] [Example 18, 1-{2-[(1R,3S,5R)-3-(2-Fluoro-3-di-(trideutero-methyl)-allylcarbamoyl)-2-aza-bicyclo[3.1.0]hex-2-yl]-2-oxo-ethyl}-1H-indazole-3-carboxylic acid amide] | 50 nM
NC(=O)c1nn(CC(=O)N2[C@@H]3C[C@@H]3C[C@H]2C(=O)NCC(F)=C2CCCC2)c2ccccc12 [Example 17, 1-{2-[(1R,3S,5R)-3-(2-Cyclopentylidene-2-fluoro-ethylcarbamoyl)-2-aza-bicyclo[3.1.0]hex-2-yl]-2-oxo-ethyl}-1H-indazole-3-carboxylic acid amide] | 128 nM
CC(C)=C(F)CNC(=O)[C@@H]1C[C@H]2C[C@H]2N1C(=O)Cn1nc(C(N)=O)c2ccc(Cl)cc21 [Example 1, 6-Chloro-1-{2-[(1R,3S,5R)-3-(2-fluoro-3-methyl-but-2-enylcarbamoyl)-2-aza-bicyclo[3.1.0]hex-2-yl]-2-oxo-ethyl}-1H-indazole-3-carboxylic acid amide] | 33 nM
CC(C)=C(F)CNC(=O)[C@@H]1C[C@H]2C[C@H]2N1C(=O)Cn1nc(C(N)=O)c2ccccc21 [Example 2, 1-{2-[(1R,3S,5R)-3-(2-Fluoro-3-methyl-but-2-enylcarbamoyl)-2-aza-bicyclo[3.1.0]hex-2-yl]-2-oxo-thyl}-1H-indazole-3-carboxylic acid amide] | 35 nM
CC(C)=C(F)CNC(=O)[C@@H]1C[C@@H](F)CN1C(=O)Cn1nc(C(N)=O)c2ccncc21 [Example 3, 1-{2-[(2S,4R)-4-Fluoro-2-(2-fluoro-3-methyl-but-2-enylcarbamoyl)-pyrrolidin-1-yl]-2-oxo-ethyl}-1H-pyrazolo[3,4-c]pyridine-3-carboxylic acid amide] | 255 nM
CO[C@H]1[C@@H](C(=O)NCC(F)=C(C)C)N(C(=O)Cn2nc(C(N)=O)c3ccncc32)C[C@@H]1F [Example 5, 1-{2-[(2S,3S,4S)-4-Fluoro-2-(2-fluoro-3-methyl-but-2-enylcarbamoyl)-3-methoxy-pyrrolidin-1-yl]-2-oxo-ethyl}-1H-pyrazolo[3,4-c]pyridine-3-carboxylic acid amide] | 253 nM
CC(C)=C(F)CNC(=O)[C@@H]1C[C@H]2C[C@H]2N1C(=O)Cn1nc(C(N)=O)c2ccncc21 [Example 10, 1-{2-[(1R,3S,5R)-3-(2-Fluoro-3-methyl-but-2-enylcarbamoyl)-2-aza-bicyclo[3.1.0]hex-2-yl]-2-oxo-ethyl}-1H-pyrazolo[3,4-c]pyridine-3-carboxylic acid amide] | 78 nM
CC(C)=C(F)[C@H](C)NC(=O)[C@@H]1C[C@H]2C[C@H]2N1C(=O)Cn1nc(C(N)=O)c2ccccc21 [Example 21, 1-(2-((1R,3S,5R)-3-((S)-3-fluoro-4-methylpent-3-en-2-ylcarbamoyl)-2-azabicyclo[3.1.0]hexan-2-yl)-2-oxoethyl)-1H-indazole-3-carboxamide] | 1800 nM
CC(C)=C(F)CNC(=O)[C@@H]1C[C@@H](F)CN1C(=O)Cn1nc(C(N)=O)c2ccccc21 [Example 7, 1-{2-[(2S,4R)-4-Fluoro-2-(2-fluoro-3-methyl-but-2-enylcarbamoyl)-pyrrolidin-1-yl]-2-oxo-ethyl}-1H-indazole-3-carboxylic acid amide] | 56 nM
CO[C@H]1[C@@H](C(=O)NCC(F)=C(C)C)N(C(=O)Cn2nc(C(N)=O)c3ccccc32)C[C@@H]1F [Example 8, 1-{2-[(2S,3S,4S)-4-Fluoro-2-(2-fluoro-3-methyl-but-2-enylcarbamoyl)-3-methoxy-pyrrolidin-1-yl]-2-oxo-ethyl}-1H-indazole-3-carboxylic acid amide] | 59 nM

Source: patent publication US9464081B2, “Pyrrolidine derivatives and their use as complement pathway modulators” (priority 2012, dated 2016)
